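1) Cells in 96-well plates. 2) Compound, 48 h, 5 concentrations. 3) Linear interpolation between surrounding doses. 4) Unreached endpoint = highest concentration. TGI is the concentration that stops growth completely.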

What all share (test): NCI-60 cell line screen, 48 h
Assay [1] relates to ACHN renal.
The test system of assay [2] is BT-549 breast.
Assay [3] concerns CCRF-CEM leukemia.
In assay [4] the test system is EKVX NSCLC.
The subject of assay [5] is HCT-116 colon.
Assay [6] deals with HOP-92 NSCLC.
The subject of assay [7] is LOX IMVI melanoma.
Assay [8] relates to MDA-MB-231 breast.
In assay [9] the test system is NCI-H23 lung.
Assay [10] has as its system NCI-H460 lung.
Assay [11] has as its system NCI/ADR-RES ovarian.
The subject of assay [12] is OVCAR-8 ovarian.
Assay [13] has as its system RPMI-8226 leukemia.
In assay [14] the test system is SK-OV-3 ovarian.
Assay [15] relates to SN12C renal.
For assay [16], the system named is SNB-75 CNS.
Assay [17] concerns U251 CNS.

As to `O=C(Nc1cccc(NC(=O)C(=O)C2CCC3=C(Sc4ccccc4N3)C2=O)n1)C(=O)C1CCC2=C(Sc3ccccc3N2)C1=O` (centres undefined), the TGI in assay [1], in assay [2], in assay [3], in [4], in [5] and in [6] was over 100 µM throughout. Further, the TGI in [7], in [8], in assay [9], in assay [10], in assay [11] and in assay [12] was over 100 µM each time. Besides, the TGI in assay [13] was over 100 µM; in assay [14] it was over 100 µM; in [15], over 100 µM; in assay [16] it was 70.2 µM; in assay [17], over 100 µM.

Consider `COC(=O)C(Cc1ccccc1)NC(=O)C(CCC(=O)OCc1ccccc1)NC(=O)OC(C)(C)C` (centres undefined), for which the TGI in assay [1], in [2], in assay [3], in assay [4], in [5] and in [6] was over 100 µM in each case. The TGI in assay [7], in assay [8], in [9], in assay [10], in assay [11] and in [12] was over 100 µM in each case. Besides, the TGI in assay [13], in assay [14], in [15], in assay [16] and in assay [17] was over 100 µM throughout.

With `Cc1ccccc1N=CN(C)C`, the TGI in assay [1], in assay [2], in assay [3], in assay [4], in [5] and in assay [6] was over 100 µM throughout. Further, the TGI was over 100 µM in assay [7]; over 100 µM in assay [8]; 61.8 µM in assay [9]; over 100 µM in [11]; over 100 µM in [12]; 58.2 µM in [13]. The TGI in assay [14], in assay [15], in assay [16] and in assay [17] was over 100 µM throughout.

`Cc1c(-c2ccccc2)[nH]c2ccc(Cl)cc2c1=O`: the TGI in assay [1] is over 100 µM; in assay [2], over 100 µM; in [3], over 100 µM; in assay [4], over 100 µM; in assay [5], 52 µM; in [6], 52 µM. Moreover, the TGI is over 100 µM in [7]; 96 µM in assay [8]; over 100 µM in assay [9]; over 100 µM in assay [10]; over 100 µM in assay [11]; 69.5 µM in [12]. Moreover, the TGI in assay [13] is over 100 µM; in assay [14], 87.6 µM; in assay [15], over 100 µM; in assay [16] it was 95.2 µM; in assay [17], 57.5 µM.

For the compound `CC(C)/C(Cl)=N/OC(=O)Nc1cccc(C(F)(F)F)c1`, the TGI in assay [1] was found to be 3.06 µM; in assay [2], 15.6 µM; in assay [3], 13.8 µM; in assay [4] it was 7.1 µM; in [5], 24.7 µM; in assay [6] it was 3.33 µM. Further, the TGI in [7] is 6.43 µM; in assay [8], 17 µM; in [9], 31.3 µM; in assay [10], 34.3 µM; in assay [11], 16.7 µM; in assay [12] it was 31.8 µM. Further, the TGI was found to be 3.69 µM in assay [13]; 31.7 µM in [14]; 20.1 µM in assay [15]; 21.2 µM in assay [16]; 31.3 µM in assay [17].

On to `COc1ccc(/C=N/n2c(=O)[nH]c3ccccc3c2=O)cc1`, for which the TGI in assay [1], in assay [2], in assay [3], in [4], in assay [5] and in [6] was over 100 µM each time. Also, the TGI in assay [7], in assay [8], in [9], in [10], in assay [11] and in assay [12] was over 100 µM in each case. Besides, the TGI in assay [13], in [14], in assay [15], in assay [16] and in assay [17] was over 100 µM throughout.

As for `CC(=O)OCc1ccc2oc(=O)c(C(=O)Oc3cccc(Cl)c3)cc2c1`, the TGI in assay [1] was over 100 µM; in assay [2], over 100 µM; in assay [3], over 100 µM; in [4], over 100 µM; in assay [5] it was 54.5 µM; in [6], 43.5 µM. The TGI in [7] is over 100 µM; in assay [8], 98.8 µM; in [9], over 100 µM; in [10], over 100 µM; in [11] it was over 100 µM; in assay [12], over 100 µM. The TGI in [13], in assay [14], in [15], in assay [16] and in assay [17] was over 100 µM throughout.

Regarding `Cc1nn2c(=O)c([N+](=O)[O-])c(/C=C/c3ccco3)nc2s1`, the TGI in assay [1] is over 100 µM; in assay [2], over 100 µM; in assay [3] it was over 100 µM; in assay [4] it was 63.7 µM; in [5], over 100 µM; in assay [6], over 100 µM. For the same compound, the TGI is 50.4 µM in assay [7]; over 100 µM in assay [8]; over 100 µM in assay [9]; over 100 µM in assay [10]; over 100 µM in assay [11]; over 100 µM in assay [12]. For the same compound, the TGI in [13], in assay [14], in [15], in [16] and in assay [17] was over 100 µM in each case.

Regarding `O=C1OC2C(O)COC2(O)C1(O)C(C[N+](=O)[O-])c1ccc(Cl)cc1` (centres undefined), the TGI in assay [1] was determined as 26.7 µM; in assay [2] it was 13.1 µM; in assay [3], 24.1 µM; in assay [4] it was 51.4 µM; in assay [5], 3.34 µM; in assay [6], 54.2 µM. The TGI in [7] is 7.35 µM; in [8] it was 48.7 µM; in [9], 18.6 µM; in [10], 34.7 µM; in assay [11] it was 72 µM; in [12], 51.1 µM. In addition, the TGI worked out at 4.67 µM in [13]; 31 µM in [14]; 37.9 µM in assay [15]; 20.1 µM in assay [16]; 25.5 µM in assay [17].

For the compound `CCCc1cc(=O)oc2c(C=O)c(O)cc(O)c12`, the TGI was 86.7 µM in assay [1]; 77.1 µM in [2]; 51.4 µM in assay [3]; 56.3 µM in assay [4]; 47.2 µM in assay [5]; 45.8 µM in assay [6]. The TGI was determined as 40.3 µM in assay [7]; 58.2 µM in [8]; 48 µM in assay [9]; 69.5 µM in assay [10]; 73 µM in assay [11]; 62 µM in assay [12]. The TGI in assay [13] is 66.5 µM; in [14], 86.9 µM; in assay [15], 78.9 µM; in assay [16], 47.4 µM; in assay [17] it was 55.7 µM.

Turning to `O=C(NO)c1ccc(OCc2cccc(Cl)c2)cc1`, the TGI is 25 µM in assay [1]; 48 µM in assay [2]; over 100 µM in assay [3]; 30.2 µM in assay [4]; 14.4 µM in assay [5]; 51.4 µM in assay [6]. For the same compound, the TGI in assay [7] was over 56.6 µM; in assay [8], 43.2 µM; in assay [9] it was 20.9 µM; in assay [10], 26 µM; in assay [11], over 29.8 µM; in assay [12] it was 33.3 µM. Moreover, the TGI is over 58.9 µM in [13]; 66.1 µM in assay [14]; 55.9 µM in assay [15]; over 70.2 µM in assay [16]; over 60.5 µM in [17].

Take `N=c1oc2c(Br)cc(Br)cc2cc1C(=O)Nc1ccccn1`: the TGI in assay [1], in assay [2], in assay [3], in assay [4], in assay [5] and in [6] was over 100 µM each time. In addition, the TGI in [7], in assay [8], in assay [9], in [10], in assay [11] and in [12] was over 100 µM each time. The TGI in [13], in [14], in assay [15], in [16] and in assay [17] was over 100 µM in each case.

For `C/C(=C/c1ccccc1)CN(C(=O)/C=C\Sc1ccccc1)C(C)(C)C`, the TGI in [1] is over 100 µM; in assay [2] it was over 100 µM; in assay [3], over 100 µM; in [4] it was over 100 µM; in assay [5] it was over 100 µM; in assay [6], over 71.6 µM. The TGI in assay [7], in assay [8], in assay [9], in assay [10], in assay [11] and in [12] was over 100 µM in each case. In addition, the TGI in assay [13], in assay [14], in assay [15], in [16] and in [17] was over 100 µM each time.

As for `O=C1C=CC(=O)c2c1cc([N+](=O)[O-])c1ccoc21`, the TGI is 3.4 µM in assay [1]; 30.8 µM in [2]; over 19.7 µM in assay [3]; 41.1 µM in [4]; 12.5 µM in assay [5]; 5 µM in assay [6]. For the same compound, the TGI in assay [7] is over 44.5 µM; in assay [8] it was 52.7 µM; in assay [9], 46.2 µM; in assay [10] it was 35.2 µM; in assay [11], over 70.8 µM; in assay [12] it was over 72.3 µM. In addition, the TGI in assay [13] is over 100 µM; in assay [14] it was 43.6 µM; in assay [15], 38.1 µM; in [16] it was over 59.5 µM; in assay [17], 37.2 µM.

Consider `COc1ccc(N=Nc2c(C)c(C#N)c(=S)n(C3OC(COC(C)=O)C(OC(C)=O)C(OC(C)=O)C3OC(C)=O)c2C)cc1` (centres undefined), for which the TGI in assay [1] is over 100 µM; in [2], over 100 µM; in assay [3] it was over 100 µM; in [5], over 100 µM; in assay [6], 63.5 µM; in [7], over 100 µM. The TGI in [8] was 71 µM; in [9], over 100 µM; in assay [10] it was over 100 µM; in [11], over 100 µM; in assay [13], over 100 µM; in assay [14], over 100 µM. For the same compound, the results for the TGI in [15] and in [16] were over 100 µM and 42.6 µM, respectively.

As to `CC(C)(C)OC(=O)[C@@H]1CCC(=S)N1Cc1ccccc1`, the TGI in [1], in [2], in assay [3], in [4], in assay [5] and in assay [6] was over 100 µM in each case. The TGI in [7], in assay [8], in assay [9], in assay [10], in assay [11] and in [12] was over 100 µM throughout. The TGI in assay [13], in [14], in assay [15], in [16] and in assay [17] was over 100 µM in each case.

Regarding `Cc1cccc(NC(=S)Nc2ccc([N+](=O)[O-])cc2)n1`, the TGI in assay [1], in assay [2], in assay [3], in assay [4], in [5] and in assay [6] was over 100 µM in each case. The TGI in [7], in assay [8], in assay [9], in assay [10], in assay [11] and in assay [12] was over 100 µM throughout. Moreover, the TGI in assay [13], in assay [14], in assay [16] and in assay [17] was over 100 µM each time.

The record behind these values is PubChem BioAssay (NCI).
